Measured values: publication PMC3310894 (Bioorganic & medicinal chemistry, 2012)

Experiments:
[1] = test system: COLO-205 tumor xenografts; test: COLO-205 human metastatic colon mouse xenograft; format: in vivo; conditions: athymic mice, 11a 35 mg/kg, 8 10 mg/kg, three times weekly, IP
[2] = mice; 35 mg/kg of 11a, 10 mg/kg of 8
VEGFR-1 = VEGFR-1 (Homo sapiens, UniProt P17948); conditions: for VEGFR-1 inhibition, fold less active than the standard 21: relative to standard 21
VEGFR-2 = VEGFR-2 (Homo sapiens, UniProt P35968); conditions: for VEGFR-2 inhibition, fold less active than the standard 23: relative to standard 23
Chain of VEGFR-2 (P35968 20-1356): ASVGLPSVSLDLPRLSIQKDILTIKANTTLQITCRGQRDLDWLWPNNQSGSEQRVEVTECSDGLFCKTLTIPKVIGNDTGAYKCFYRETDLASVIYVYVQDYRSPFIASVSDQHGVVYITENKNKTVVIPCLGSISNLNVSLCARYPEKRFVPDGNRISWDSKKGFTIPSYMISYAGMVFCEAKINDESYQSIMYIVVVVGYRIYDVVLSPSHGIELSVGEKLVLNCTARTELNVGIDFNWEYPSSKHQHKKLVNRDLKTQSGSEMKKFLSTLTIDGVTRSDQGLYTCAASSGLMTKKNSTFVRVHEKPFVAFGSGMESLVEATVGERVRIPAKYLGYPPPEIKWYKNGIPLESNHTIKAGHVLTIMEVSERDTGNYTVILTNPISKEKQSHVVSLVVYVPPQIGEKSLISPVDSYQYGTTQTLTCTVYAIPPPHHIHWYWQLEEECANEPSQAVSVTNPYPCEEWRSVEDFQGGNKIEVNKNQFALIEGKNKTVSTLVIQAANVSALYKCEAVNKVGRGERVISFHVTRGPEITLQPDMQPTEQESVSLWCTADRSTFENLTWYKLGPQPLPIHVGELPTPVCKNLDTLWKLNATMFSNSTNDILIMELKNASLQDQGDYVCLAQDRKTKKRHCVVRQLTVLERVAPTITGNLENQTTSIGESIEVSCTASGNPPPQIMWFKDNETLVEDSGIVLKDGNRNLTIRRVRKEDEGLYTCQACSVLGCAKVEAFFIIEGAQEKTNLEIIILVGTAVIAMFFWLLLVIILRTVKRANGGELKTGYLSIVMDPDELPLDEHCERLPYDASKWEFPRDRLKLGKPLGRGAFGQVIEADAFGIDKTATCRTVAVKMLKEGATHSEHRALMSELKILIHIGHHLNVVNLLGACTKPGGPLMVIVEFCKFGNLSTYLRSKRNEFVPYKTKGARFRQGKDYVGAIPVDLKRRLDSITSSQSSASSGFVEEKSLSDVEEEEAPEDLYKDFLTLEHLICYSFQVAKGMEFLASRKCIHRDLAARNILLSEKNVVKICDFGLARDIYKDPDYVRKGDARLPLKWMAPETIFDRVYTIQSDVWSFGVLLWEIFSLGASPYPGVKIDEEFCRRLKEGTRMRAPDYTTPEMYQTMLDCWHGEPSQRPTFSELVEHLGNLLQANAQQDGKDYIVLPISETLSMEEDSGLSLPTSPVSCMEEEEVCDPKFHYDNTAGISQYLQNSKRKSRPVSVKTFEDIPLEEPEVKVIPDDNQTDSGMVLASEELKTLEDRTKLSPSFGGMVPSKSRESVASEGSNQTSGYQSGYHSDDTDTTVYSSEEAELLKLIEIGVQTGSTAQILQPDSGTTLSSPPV

EGFR = EGFR (Homo sapiens, UniProt P00533); conditions: for EGFR inhibition, fold less potent than the standard 20: relative to standard 20 (PD153035)
Chain of EGFR (P00533 25-1210): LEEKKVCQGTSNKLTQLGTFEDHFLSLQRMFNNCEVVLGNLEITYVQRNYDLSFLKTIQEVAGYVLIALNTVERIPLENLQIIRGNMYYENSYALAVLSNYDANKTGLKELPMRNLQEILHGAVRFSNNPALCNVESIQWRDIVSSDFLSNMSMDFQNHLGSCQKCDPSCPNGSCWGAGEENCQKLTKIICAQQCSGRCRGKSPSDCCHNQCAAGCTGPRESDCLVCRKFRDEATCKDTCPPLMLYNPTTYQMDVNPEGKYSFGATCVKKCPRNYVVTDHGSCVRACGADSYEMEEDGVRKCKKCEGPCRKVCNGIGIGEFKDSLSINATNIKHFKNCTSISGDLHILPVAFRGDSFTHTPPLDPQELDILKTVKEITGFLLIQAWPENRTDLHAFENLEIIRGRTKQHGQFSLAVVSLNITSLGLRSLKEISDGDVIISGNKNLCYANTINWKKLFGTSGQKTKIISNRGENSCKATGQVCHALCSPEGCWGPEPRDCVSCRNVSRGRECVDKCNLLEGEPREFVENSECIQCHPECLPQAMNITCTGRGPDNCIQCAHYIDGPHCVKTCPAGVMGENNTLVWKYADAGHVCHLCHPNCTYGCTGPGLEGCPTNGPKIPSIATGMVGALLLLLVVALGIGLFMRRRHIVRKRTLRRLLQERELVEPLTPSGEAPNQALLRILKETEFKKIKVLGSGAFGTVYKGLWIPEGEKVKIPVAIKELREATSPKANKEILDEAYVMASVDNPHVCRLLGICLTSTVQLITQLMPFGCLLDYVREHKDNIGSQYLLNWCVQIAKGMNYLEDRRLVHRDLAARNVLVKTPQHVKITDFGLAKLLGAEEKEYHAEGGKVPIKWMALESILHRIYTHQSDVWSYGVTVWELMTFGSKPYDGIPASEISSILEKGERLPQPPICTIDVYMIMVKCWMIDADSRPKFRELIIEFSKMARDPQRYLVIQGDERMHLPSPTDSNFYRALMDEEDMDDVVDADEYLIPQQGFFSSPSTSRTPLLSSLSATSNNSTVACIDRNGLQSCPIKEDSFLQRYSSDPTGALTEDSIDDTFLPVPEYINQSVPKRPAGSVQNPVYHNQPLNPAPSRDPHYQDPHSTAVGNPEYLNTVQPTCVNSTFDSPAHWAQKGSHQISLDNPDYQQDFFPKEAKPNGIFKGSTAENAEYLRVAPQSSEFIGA

PDGFR-β = PDGFR-β (Homo sapiens, UniProt P09619); conditions: for PDGFRβ inhibition, fold less active than the standard 22: relative to standard 22 (AG1295)
Chain of PDGFR-β (P09619 33-1106): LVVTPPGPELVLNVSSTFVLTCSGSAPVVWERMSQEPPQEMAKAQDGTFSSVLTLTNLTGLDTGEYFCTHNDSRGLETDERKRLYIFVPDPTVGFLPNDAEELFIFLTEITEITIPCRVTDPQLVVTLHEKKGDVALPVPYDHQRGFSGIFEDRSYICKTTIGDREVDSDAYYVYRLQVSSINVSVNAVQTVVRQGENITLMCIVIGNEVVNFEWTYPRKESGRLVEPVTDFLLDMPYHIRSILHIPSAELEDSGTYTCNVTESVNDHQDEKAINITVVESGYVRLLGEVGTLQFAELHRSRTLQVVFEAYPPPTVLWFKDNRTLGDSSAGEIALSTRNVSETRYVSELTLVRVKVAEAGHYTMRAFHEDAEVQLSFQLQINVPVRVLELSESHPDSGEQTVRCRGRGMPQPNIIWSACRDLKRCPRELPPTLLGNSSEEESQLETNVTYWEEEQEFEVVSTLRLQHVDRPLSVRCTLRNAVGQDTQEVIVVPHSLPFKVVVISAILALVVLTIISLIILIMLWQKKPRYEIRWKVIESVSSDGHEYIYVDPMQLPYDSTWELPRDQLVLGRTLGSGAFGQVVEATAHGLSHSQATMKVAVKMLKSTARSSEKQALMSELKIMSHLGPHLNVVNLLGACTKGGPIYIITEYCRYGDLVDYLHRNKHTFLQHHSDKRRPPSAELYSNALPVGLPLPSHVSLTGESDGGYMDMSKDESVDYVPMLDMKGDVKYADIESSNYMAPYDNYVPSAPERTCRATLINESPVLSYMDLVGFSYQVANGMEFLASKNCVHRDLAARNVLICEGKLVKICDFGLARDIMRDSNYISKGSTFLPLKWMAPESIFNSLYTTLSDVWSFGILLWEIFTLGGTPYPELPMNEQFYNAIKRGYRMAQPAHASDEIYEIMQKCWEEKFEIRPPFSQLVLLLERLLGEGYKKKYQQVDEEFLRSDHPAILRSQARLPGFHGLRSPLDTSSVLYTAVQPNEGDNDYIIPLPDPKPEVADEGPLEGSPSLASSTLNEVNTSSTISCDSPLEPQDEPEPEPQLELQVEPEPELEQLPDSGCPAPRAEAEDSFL

Chain of VEGFR-1 (P17948 27-1338): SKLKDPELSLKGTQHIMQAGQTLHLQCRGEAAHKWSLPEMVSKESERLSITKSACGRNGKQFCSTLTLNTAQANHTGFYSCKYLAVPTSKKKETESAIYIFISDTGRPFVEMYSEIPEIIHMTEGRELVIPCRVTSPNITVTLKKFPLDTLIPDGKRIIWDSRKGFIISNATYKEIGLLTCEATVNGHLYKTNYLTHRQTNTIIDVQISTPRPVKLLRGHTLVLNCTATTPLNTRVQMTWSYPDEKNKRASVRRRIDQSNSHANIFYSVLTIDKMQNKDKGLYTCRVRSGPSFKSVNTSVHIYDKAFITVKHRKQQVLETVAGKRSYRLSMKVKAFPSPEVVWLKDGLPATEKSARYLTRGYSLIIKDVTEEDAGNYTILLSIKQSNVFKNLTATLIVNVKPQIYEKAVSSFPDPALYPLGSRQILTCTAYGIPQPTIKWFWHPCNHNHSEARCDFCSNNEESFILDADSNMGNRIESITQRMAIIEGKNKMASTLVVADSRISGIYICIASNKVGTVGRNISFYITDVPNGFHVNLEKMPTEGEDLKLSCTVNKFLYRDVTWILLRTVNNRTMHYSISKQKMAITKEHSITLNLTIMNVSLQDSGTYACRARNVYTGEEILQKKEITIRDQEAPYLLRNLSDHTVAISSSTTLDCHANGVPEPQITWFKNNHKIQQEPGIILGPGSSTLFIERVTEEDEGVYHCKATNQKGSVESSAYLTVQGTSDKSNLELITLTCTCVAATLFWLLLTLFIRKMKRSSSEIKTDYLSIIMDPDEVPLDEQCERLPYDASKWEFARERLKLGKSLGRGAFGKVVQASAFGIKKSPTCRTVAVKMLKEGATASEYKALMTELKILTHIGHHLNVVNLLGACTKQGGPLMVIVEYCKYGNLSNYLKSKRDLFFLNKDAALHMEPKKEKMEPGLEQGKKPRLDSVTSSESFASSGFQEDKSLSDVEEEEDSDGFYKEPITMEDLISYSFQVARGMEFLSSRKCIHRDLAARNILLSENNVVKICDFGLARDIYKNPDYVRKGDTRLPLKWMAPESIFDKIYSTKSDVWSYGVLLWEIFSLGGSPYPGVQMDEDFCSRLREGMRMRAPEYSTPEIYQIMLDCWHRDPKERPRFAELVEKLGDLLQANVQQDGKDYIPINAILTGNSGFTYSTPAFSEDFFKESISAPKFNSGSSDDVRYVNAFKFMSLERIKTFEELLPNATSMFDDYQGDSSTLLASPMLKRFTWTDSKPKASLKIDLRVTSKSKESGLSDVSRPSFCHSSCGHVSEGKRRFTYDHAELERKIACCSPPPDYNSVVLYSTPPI

Cc1[nH]c(/C=C2\C(=O)Nc3ccccc32)c(C)c1CCC(=O)O [Compound 8, TSU-68, reference compound]
primary tumor growth rate compared to the control [1]: significant decreases | primary tumor vascularity compared to control animals [1]: significant decrease | toxicity in six week toxicity determination study [2]: no overt toxicity

Nc1nc(Nc2cccc(Br)c2)c2ccn(Cc3ccccc3)c2n1 [Compound 9a, 7-benzyl-N^4-(3-bromophenyl)-7H-pyrrolo[2,3-d]pyrimidine-2,4-diamine]
VEGFR-1 inhibition, fold less active than the standard 21 (VEGFR-1): 5.6 fold | VEGFR-2 inhibition, fold less active than the standard 23 (VEGFR-2): 2 fold | EGFR inhibition, fold less potent than the standard 20 (EGFR): about 800 fold

Nc1nc(Nc2cccc(Br)c2)c2ccn(Cc3ccccc3Cl)c2n1 [Compound 11a, N^4-(3-bromophenyl)-7-(2-chlorobenzyl)-7H-pyrrolo[2,3-d]pyrimidine-2,4-diamine]
PDGFRβ inhibition, result in words (PDGFR-β): single digit micromolar concentrations | PDGFRβ inhibition, fold more active than parent regioisomer 11 (PDGFR-β; relative to 6-substituted regioisomer 11): > 33 fold | numbers of COLO-205 metastases to the liver [1]: significantly reduced numbers | primary tumor growth rate compared to the control [1]: significant decreases | primary tumor vascularity compared to control animals [1]: significant decrease | toxicity in six week toxicity determination study [2]: no overt toxicity | VEGFR-1 inhibition, fold less active than the standard 21 (VEGFR-1): 7 fold | VEGFR-2 inhibition, fold less active than the standard 23 (VEGFR-2): 1.6 fold

COc1ccc(OC)c(Cn2ccc3c(Nc4cccc(Br)c4)nc(N)nc32)c1 [Compound 13a, N^4-(3-bromophenyl)-7-(2,5-dimethoxybenzyl)-7H-pyrrolo[2,3-d]pyrimidine-2,4-diamine]
VEGFR-2 inhibition, result in words (VEGFR-2): inactive even at 200 μM | EGFR inhibition, result in words (EGFR): 2-digit micromolar inhibition | EGFR inhibition, fold less potent than the standard 20 (EGFR): 346 fold

Nc1nc(Nc2cccc(Br)c2)c2ccn(Cc3ccc(Cl)cc3Cl)c2n1 [Compound 14a, N^4-(3-bromophenyl)-7-(2,4-dichlorobenzyl)-7H-pyrrolo[2,3-d]pyrimidine-2,4-diamine]
VEGFR-2 inhibition, result in words (VEGFR-2): inactive | EGFR inhibition, result in words (EGFR): inactivity

Nc1nc(Nc2cccc(Br)c2)c2ccn(Cc3ccc(Cl)c(Cl)c3)c2n1 [Compound 15a, N^4-(3-bromophenyl)-7-(3,4-dichlorobenzyl)-7H-pyrrolo[2,3-d]pyrimidine-2,4-diamine]
VEGFR-1 inhibition, fold less active than the standard 21 (VEGFR-1): 7 fold | VEGFR-2 inhibition, fold less active than the standard 23 (VEGFR-2): 6 fold | EGFR inhibition, result in words (EGFR): inactivity

Nc1nc(Nc2cccc(Br)c2)c2ccn(Cc3cccc4ccccc34)c2n1 [Compound 16a, N^4-(3-bromophenyl)-7-(1-naphthylmethyl)-7H-pyrrolo[2,3-d]pyrimidine-2,4-diamine]
PDGFRβ inhibition, fold less active than the standard 22 (PDGFR-β): 20 fold | VEGFR-1 inhibition, fold less active than the standard 21 (VEGFR-1): 8.4 fold | VEGFR-2 inhibition, fold less active than parent regioisomer 16 (VEGFR-2; 16a versus 16): 3 fold | VEGFR-2 inhibition, fold less active than the standard 23 (VEGFR-2): 1.4 fold | EGFR inhibition, result in words (EGFR): abolished

Nc1nc(Nc2cccc(Br)c2)c2ccn(Cc3ccc4ccccc4c3)c2n1 [Compound 17a, N^4-(3-bromophenyl)-7-(2-naphthylmethyl)-7H-pyrrolo[2,3-d]pyrimidine-2,4-diamine]
PDGFRβ inhibition, fold less active than the standard 22 (PDGFR-β): 34 fold | VEGFR-1 inhibition, fold less active than the standard 21 (VEGFR-1): 2.8 fold | VEGFR-2 inhibition, fold less active than the standard 23 (VEGFR-2): 2 fold | EGFR inhibition, result in words (EGFR): abolished

Nc1nc(Nc2cccc(Br)c2)c2ccn(Cc3ccc(-c4ccccc4)cc3)c2n1 [Compound 18a, 7-Biphenyl-4-ylmethyl-N^4-(3-bromo-phenyl)-7H-pyrrolo[2,3-d]pyrimidine-2,4-diamine]
VEGFR-1 inhibition, result in words (VEGFR-1): inactive at a concentration of 200 μM | EGFR inhibition, result in words (EGFR): abolished

COc1cc(Cn2ccc3c(Nc4cccc(Br)c4)nc(N)nc32)cc(OC)c1OC [Compound 19a, N^4-(3-Bromo-phenyl)-7-(3,4,5-trimethoxy-benzyl)-7H-pyrrolo[2,3-d]pyrimidine-2,4-diamine]
PDGFRβ inhibition, result in words (PDGFR-β): single digit micromolar concentrations | VEGFR-1 inhibition, fold less active than the standard 21 (VEGFR-1): about 8.8 fold | VEGFR-2 inhibition, fold less active than the standard 23 (VEGFR-2): 2 fold | EGFR inhibition, result in words (EGFR): inactivity
